Results: article PMC9150102 (Journal of Medicinal Chemistry, 2022)

Biological target: T1, SERCA2a (Rattus norvegicus, UniProt P11507)
T1 construct: tissues from healthy and STZ rats were homogenized; from tissue; host or cells: Sprague Dawley rat left ventricle homogenates (healthy or STZ-diabetic)
Assay: SERCA2a ATPase activity in cardiac homogenates from diabetic (STZ) rats
Assay type: biochemical
Protocol: Measurements were performed in cardiac SR microsomes (guinea pig) and in whole tissue homogenates (rat). Cardiac preparations included SERCA2a and PLN. To test for PLN involvement in the effect of compounds, SERCA1 activity was measured in PLN-free microsomes (from guinea pig skeletal muscle) before and after reconstitution with the synthetic PLN1–32 inhibitory fragment at a ratio of 300:1 for PLN/SERCA. […] Either an increase in Vmax (rat) or a decrease in KdCa (increased Ca^2+ affinity) (guinea pig) stands for enhancement of SERCA function.
(rats). As verified by Western blot, cardiac microsomes preparations included SERCA2a and PLN and skeletal muscle ones included SERCA1 only.
SERCA stimulation4, compounds were also tested on SERCA1 in microsomes of guinea-pig skeletal muscle (PLN-free) before and after reconstitution with the PLN1-32 inhibitory fragment at a ratio of 300:1 […]
Left ventricles (LV) were dissected from rat and guinea -pig of healthy and failing preparations and frozen until use. Tissues were homogenized, subjected to centrifugation to obtain SR -enriched microsomes and sarcomeric proteins were extracted, as previously described 4.
In the case of guinea-pig hearts, LV tissues were homogenized in 4 volumes of 10 mM NaHCO3, 1 mM PMSF, 10 μg/ml aprotinin and leupeptin (pH 7) and centrifuged at 12,000g for 15 minutes. Supernatants were filtered and centrifuged at 100,000 g for 30 min. Contractile proteins were extracted by suspending the pellets with 0.6 M KCl, 30 mM histidine, pH 7 and further centrifugation at 100,000 g for 30 min.
Final pellets were reconstituted with 0.3 M sucrose, 30 mM histidine, pH 7, to obtain SR-enriched […]
In the case of rat hearts, cardiac homogenates were used to have sufficient material to replicate the experiments within a single animal. Hearts were excised from rats eight weeks after STZ injection. LV tissues from healthy and STZ rats were homogenized (1 g in 4 ml buffer) in a medium containing 300 mM sucrose, 50 mM K-phosphate, 10 mM NaF, 0.3 mM PMSF, 0.5 mM DTT, pH 7, and centrifuged at 35,000 g for 30 min. The final pellet was resuspended in the same buffer.
SERCA2a ATPase activity was measured as the rate of 32P-ATP release at multiple Ca2+ concentrations (100-2000 nM) in the absence and presence of tested compounds, as previously described5. Increasing concentrations of each compound were pre-incubated with 2 μg of cardiac preparations for 5 min at 4° C in 80 μl of a solution containing 100 mM KCl, 5 mM MgCl2, 1 μM A23187, 20 mM Tris, pH 7.5. Then, 20 μl of 5 mM Tris-ATP containing 50 nCi of 32P-ATP (3-10 Ci/mmol, Perkin Elmer) were added. […] 32P was separated by centrifugation with activated charcoal (Norit A, Serva) and the radioactivity was measured. […]

T1 sequence (P11507 1-997 isoform P11507-2): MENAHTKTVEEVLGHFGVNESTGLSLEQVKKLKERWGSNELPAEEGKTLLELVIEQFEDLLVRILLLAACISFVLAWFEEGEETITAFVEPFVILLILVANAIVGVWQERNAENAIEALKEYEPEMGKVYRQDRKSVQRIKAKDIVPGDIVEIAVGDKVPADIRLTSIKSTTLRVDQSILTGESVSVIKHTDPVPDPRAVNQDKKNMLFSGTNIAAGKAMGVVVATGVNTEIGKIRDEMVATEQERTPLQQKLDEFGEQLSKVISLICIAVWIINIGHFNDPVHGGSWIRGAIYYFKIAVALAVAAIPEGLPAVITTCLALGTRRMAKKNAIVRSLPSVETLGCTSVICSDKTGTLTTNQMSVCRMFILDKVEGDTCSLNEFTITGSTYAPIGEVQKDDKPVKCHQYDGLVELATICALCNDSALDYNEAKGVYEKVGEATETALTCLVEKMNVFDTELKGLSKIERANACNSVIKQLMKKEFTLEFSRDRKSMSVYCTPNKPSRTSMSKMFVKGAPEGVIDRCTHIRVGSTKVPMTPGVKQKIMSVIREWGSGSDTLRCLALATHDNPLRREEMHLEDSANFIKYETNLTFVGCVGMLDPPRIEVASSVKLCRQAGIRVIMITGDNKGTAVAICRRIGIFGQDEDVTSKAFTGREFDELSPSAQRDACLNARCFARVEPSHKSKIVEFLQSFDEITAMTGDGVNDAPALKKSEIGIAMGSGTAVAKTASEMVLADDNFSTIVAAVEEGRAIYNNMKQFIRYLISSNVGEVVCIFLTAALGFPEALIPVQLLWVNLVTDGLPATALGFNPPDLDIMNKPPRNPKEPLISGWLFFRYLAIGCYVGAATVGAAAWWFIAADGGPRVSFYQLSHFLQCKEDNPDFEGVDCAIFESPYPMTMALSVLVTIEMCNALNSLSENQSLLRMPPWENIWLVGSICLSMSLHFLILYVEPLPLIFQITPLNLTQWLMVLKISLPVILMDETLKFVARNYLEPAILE

Structure (SMILES)	SERCA2a Vmax increase (300 nM)	SERCA2a Vmax increase (500 nM)
C[C@]12CC[C@H](CC(=O)O)C[C@@H]1[C@@H](O)C[C@@H]1[C@@H]2CC[C@]2(C)C(=O)CC[C@@H]12 [Compound 8]	+17%	+28%
C[C@]12CC[C@H](CCCC(=O)O)C[C@@H]1[C@@H](O)C[C@@H]1[C@@H]2CC[C@]2(C)C(=O)CC[C@@H]12 [Compound 5]	+26%	+25%
